Test results as given in PubChem BioAssay AID248 (DTP/NCI, 2004).
Several values for one entry are separate records, joined by “and”; a condition that tells them apart may be missing. Equal values may be shown once. Toxic doses and inconclusive results are not listed.

Tested on: L1210 leukemia ip in BDF1 mice, survival T/C
Assay: NCI In Vivo Anticancer Drug Screen. Data for tumor model L1210 Leukemia (intraperitoneal) in B6D2F1 (BDF1) mice
Details: endpoint: mean survival time, higher = longer survival
Method in brief: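 Transplantable tumor model; survival measured in treated vs vehicle control mice. Value = treated/control.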

[1] = dose: 100.0 mg/kg/injection, schedule: Q01DX009 (ip), vehicle: saline with Tween-80
[2] = dose: 100.0 mg/kg/injection, schedule: Q04DX003 (ip), vehicle: saline
[3] = dose: 200.0 mg/kg/injection, schedule: Q01DX009 (ip), vehicle: saline with Tween-80
[4] = dose: 200.0 mg/kg/injection, schedule: Q04DX003 (ip), vehicle: saline
[5] = dose: 400.0 mg/kg/injection, schedule: Q04DX003 (ip), vehicle: saline
[6] = dose: 100.0 mg/kg/injection, schedule: Q04DX003 (ip), vehicle: Klucel (hydroxypropylcellulose) (HPC)
[7] = dose: 200.0 mg/kg/injection, schedule: Q04DX003 (ip), vehicle: Klucel (hydroxypropylcellulose) (HPC)
[8] = dose: 400.0 mg/kg/injection, schedule: Q04DX003 (ip), vehicle: Klucel (hydroxypropylcellulose) (HPC)
[9] = dose: 100.0 mg/kg/injection, schedule: Q04DX003 (ip), vehicle: saline with Tween-80
[10] = dose: 400.0 mg/kg/injection, schedule: Q04DX003 (ip), vehicle: saline with Tween-80
[11] = dose: 100.0 mg/kg/injection, schedule: Q01DX009 (ip), vehicle: saline
[12] = dose: 200.0 mg/kg/injection, schedule: Q01DX009 (ip), vehicle: saline
[13] = dose: 100.0 mg/kg/injection, schedule: Q01DX001 (ip), vehicle: carboxymethylcellulose (CMC)
[14] = dose: 200.0 mg/kg/injection, schedule: Q01DX001 (ip), vehicle: carboxymethylcellulose (CMC)
[15] = dose: 100.0 mg/kg/injection, schedule: Q01DX001 (ip), vehicle: saline with Tween-80
[16] = dose: 200.0 mg/kg/injection, schedule: Q04DX003 (ip), vehicle: saline with Tween-80
[17] = dose: 100.0 mg/kg/injection, schedule: Q01DX009 (ip), vehicle: Klucel (hydroxypropylcellulose) (HPC)
[18] = dose: 200.0 mg/kg/injection, schedule: Q01DX009 (ip), vehicle: Klucel (hydroxypropylcellulose) (HPC)
[19] = dose: 400.0 mg/kg/injection, schedule: Q01DX009 (ip), vehicle: Klucel (hydroxypropylcellulose) (HPC)

Cc1cc(-c2ccccc2)c2ccccc2c1N(CC(=O)O)S(=O)(=O)c1ccccc1
T/C [1]: 105 % of control | T/C [2]: 98 % of control | T/C [3]: 93 % of control | T/C [4]: 104 % of control | T/C [5]: 102 % of control

C/C(O)=C/c1cc(N2CCCCC2)nc(=S)[nH]1
T/C [6]: 102 % of control | T/C [7]: 100 % of control | T/C [8]: 100 % of control

FC(F)(F)c1cccc(P(c2cccc(C(F)(F)F)c2)c2ccccc2C(F)(F)F)c1
T/C [9]: 95 % of control | T/C [10]: 87 % of control

O=S(=O)(Nc1ccccc1F)c1ccc2ccccc2c1
T/C [11]: 93 % of control | T/C [12]: 93 % of control | T/C (dose: 400.0 mg/kg/injection, schedule: Q01DX009 (ip), vehicle: saline): 98 % of control

COc1ccccc1NS(=O)(=O)c1ccccc1
T/C [13]: 92 % of control | T/C [14]: 103 % of control | T/C (dose: 400.0 mg/kg/injection, schedule: Q01DX001 (ip), vehicle: carboxymethylcellulose (CMC)): 103 % of control

CC(C)(C)OC1C2C=CC1C1C2C(C)(C)C1(C)C (stereo not drawn)
T/C [15]: 90 % of control | T/C (dose: 200.0 mg/kg/injection, schedule: Q01DX001 (ip), vehicle: saline with Tween-80): 90 % of control

O=C1C(N2CC2)=C(N2CCCC(O)C2)C(=O)C(N2CC2)=C1N1CCCC(O)C1 (stereo not drawn)
T/C (dose: 0.12 mg/kg/injection, schedule: Q04DX003 (ip), vehicle: saline): 103 % of control | T/C (dose: 0.25 mg/kg/injection, schedule: Q04DX003 (ip), vehicle: saline): 111 % of control | T/C (dose: 0.37 mg/kg/injection, schedule: Q01DX001 (ip), vehicle: saline): 98 % of control | T/C (dose: 0.37 mg/kg/injection, schedule: Q01DX009 (ip), vehicle: saline): 102 % of control and 103 % of control | T/C (dose: 0.5 mg/kg/injection, schedule: Q04DX003 (ip), vehicle: saline): 123 % of control | T/C (dose: 0.75 mg/kg/injection, schedule: Q01DX001 (ip), vehicle: saline): 108 % of control | T/C (dose: 0.75 mg/kg/injection, schedule: Q01DX009 (ip), vehicle: saline): 96 % of control | T/C (dose: 1.5 mg/kg/injection, schedule: Q01DX001 (ip), vehicle: saline): 105 % of control | T/C (dose: 1.5 mg/kg/injection, schedule: Q01DX009 (ip), vehicle: saline): 124 % of control | T/C (dose: 2.0 mg/kg/injection, schedule: Q04DX003 (ip), vehicle: saline): 168 % of control | T/C (dose: 3.0 mg/kg/injection, schedule: Q01DX001 (ip), vehicle: saline): 102 % of control | T/C (dose: 3.0 mg/kg/injection, schedule: Q01DX009 (ip), vehicle: saline): 159 % of control | T/C (dose: 4.0 mg/kg/injection, schedule: Q04DX003 (ip), vehicle: saline): 156 % of control and 184 % of control | T/C (dose: 6.0 mg/kg/injection, schedule: Q04DX003 (ip), vehicle: saline): 204 % of control

S=C1SCN(CCc2ccccc2)CN1CCc1ccccc1
T/C (dose: 100.0 mg/kg/injection, schedule: Q04DX002 (ip), vehicle: gum acacia): 92 % of control | T/C (dose: 200.0 mg/kg/injection, schedule: Q04DX002 (ip), vehicle: gum acacia): 98 % of control | T/C (dose: 400.0 mg/kg/injection, schedule: Q04DX002 (ip), vehicle: gum acacia): 92 % of control

Cc1ccc(C)c(CCO)c1
T/C [1]: 100 % of control | T/C [9]: 97 % of control | T/C [3]: 95 % of control | T/C [16]: 108 % of control | T/C (dose: 400.0 mg/kg/injection, schedule: Q01DX009 (ip), vehicle: saline with Tween-80): 91 % of control

Cc1cccc(Cl)c1NC(=O)N(Cc1ccccc1)Cc1ccccc1
T/C [17]: 100 % of control | T/C [18]: 105 % of control | T/C [19]: 97 % of control

O=NN(CCCl)C(=O)Nc1ccc2c(c1)OCO2
T/C (dose: 4.0 mg/kg/injection, schedule: Q01DX009 (ip), vehicle: other): 155 % of control | T/C (dose: 6.0 mg/kg/injection, schedule: Q01DX009 (ip), vehicle: other): 163 % of control | T/C (dose: 9.0 mg/kg/injection, schedule: Q01DX009 (ip), vehicle: other): 170 % of control | T/C (dose: 13.0 mg/kg/injection, schedule: Q01DX009 (ip), vehicle: other): 173 % of control | T/C (dose: 20.0 mg/kg/injection, schedule: Q01DX001 (ip), vehicle: other): 180 % of control | T/C (dose: 20.0 mg/kg/injection, schedule: Q01DX009 (ip), vehicle: other): 164 % of control | T/C (dose: 22.0 mg/kg/injection, schedule: Q01DX009 (ip), vehicle: carboxymethylcellulose (CMC)): 157 % of control | T/C (dose: 30.0 mg/kg/injection, schedule: Q01DX001 (ip), vehicle: other): 170 % of control | T/C (dose: 30.0 mg/kg/injection, schedule: Q01DX009 (ip), vehicle: other): 166 % of control and 185 % of control | T/C (dose: 44.0 mg/kg/injection, schedule: Q01DX009 (ip), vehicle: other): 104 % of control | T/C (dose: 66.0 mg/kg/injection, schedule: Q01DX001 (ip), vehicle: other): 226 % of control | T/C (dose: 88.0 mg/kg/injection, schedule: Q01DX001 (ip), vehicle: saline): 151 % of control | T/C [13]: 151 % of control | T/C [14]: 160 % of control

O=C(O)C1C2C=CCC1CC2 (stereo not drawn)
T/C (dose: 100.0 mg/kg/injection, schedule: Q04DX003 (ip), vehicle: alcohol): 100 % of control | T/C (dose: 200.0 mg/kg/injection, schedule: Q04DX003 (ip), vehicle: alcohol): 103 % of control | T/C (dose: 400.0 mg/kg/injection, schedule: Q04DX003 (ip), vehicle: alcohol): 100 % of control

CNC(=S)N/N=C/c1ccc2c(c1)CCC2
T/C [6]: 100 % of control | T/C [7]: 100 % of control | T/C [8]: 91 % of control

CC12CCC3C(CC4OC45CC(O)CCC35C)C1CCC21CO1 (stereo not drawn)
T/C (dose: 50.0 mg/kg/injection, schedule: Q01DX001 (sc), vehicle: steriod suspending solution): 98 % of control | T/C (dose: 100.0 mg/kg/injection, schedule: Q01DX001 (sc), vehicle: steriod suspending solution): 104 % of control | T/C (dose: 200.0 mg/kg/injection, schedule: Q01DX001 (sc), vehicle: steriod suspending solution): 95 % of control | T/C (dose: 400.0 mg/kg/injection, schedule: Q01DX001 (sc), vehicle: steriod suspending solution): 101 % of control

NC(Cc1ccc(O)c(I)c1)C(=O)O (stereo not drawn)
T/C [11]: 96 % of control | T/C [2]: 101 % of control | T/C [12]: 98 % of control | T/C [4]: 93 % of control | T/C [5]: 100 % of control

CNc1ccccc1C(=O)NNS(=O)(=O)c1ccc(C)cc1
T/C (dose: 100.0 mg/kg/injection, schedule: Q01DX001 (ip), vehicle: saline): 102 % of control | T/C (dose: 200.0 mg/kg/injection, schedule: Q01DX001 (ip), vehicle: saline): 102 % of control | T/C (dose: 400.0 mg/kg/injection, schedule: Q01DX001 (ip), vehicle: saline): 90 % of control

CN(C)c1ccc(C=O)cc1[N+](=O)[O-]
T/C (dose: 50.0 mg/kg/injection, schedule: Q01DX009 (ip), vehicle: Klucel (hydroxypropylcellulose) (HPC)): 94 % of control | T/C [17]: 97 % of control | T/C [6]: 97 % of control | T/C [18]: 100 % of control | T/C [7]: 92 % of control | T/C [8]: 100 % of control

CC(C)CCOC(=O)C(O)c1ccccc1 (stereo not drawn)
T/C [17]: 98 % of control | T/C [6]: 100 % of control | T/C [18]: 92 % of control | T/C [7]: 88 % of control | T/C [19]: 95 % of control | T/C [8]: 91 % of control

O=C(Cc1ccccc1)Nc1cccc(Cl)c1
T/C [17]: 100 % of control | T/C [18]: 86 % of control | T/C [19]: 95 % of control

CCCN(CCC)P(c1ccccc1)N(CCC)CCC
T/C (dose: 100.0 mg/kg/injection, schedule: Q04DX002 (ip), vehicle: saline with Tween-80): 93 % of control | T/C (dose: 200.0 mg/kg/injection, schedule: Q04DX002 (ip), vehicle: saline with Tween-80): 101 % of control

O=S(=O)(Nc1cc(N2CCOCC2)c(O)c2ccccc12)c1ccccc1
T/C (dose: 25.0 mg/kg/injection, schedule: Q01DX001 (ip), vehicle: saline with Tween-80): 95 % of control | T/C (dose: 50.0 mg/kg/injection, schedule: Q01DX001 (ip), vehicle: saline with Tween-80): 97 % of control | T/C [15]: 94 % of control

CCCC(NC(=O)C(C)NC(=O)OCc1ccccc1)C(=O)OC (stereo not drawn)
T/C [9]: 93 % of control | T/C [16]: 93 % of control | T/C [10]: 86 % of control
